{"source": "ChEMBL document CHEMBL1212713", "about": "“Molecular docking and ligand specificity in fragment-based inhibitor discovery” (Nat Chem Biol, 2009)", "note": "Activity calls are given as the source filed them."}
{"test": "Inhibition of beta lactamase CTX-M assessed as hydrolysis of beta lactam by spectrometry analysis", "units": {"Ki": "µM"}}
{"compound": "Cn1cc(C(=O)Nc2cccc(-c3nn[nH]n3)c2)c2ccccc21", "Ki": 10}
{"compound": "O=C(O)CN1C(=O)O[C@@H](c2ccccc2)C1=O", "Ki": 700}
{"compound": "Nc1sc2c(c1-c1nn[nH]n1)CCCC2", "Ki": 3000}
{"compound": "O=C1C[C@H](S(=O)(=O)O)c2ccccc2C1=O", "Ki": 700}
{"compound": "O=C1C=C(S(=O)(=O)O)c2ccccc2C1=O", "Ki": 1000}
{"compound": "c1ccc(COc2cccc(-c3nn[nH]n3)c2)cc1", "Ki": 1000}
{"compound": "O=C(Nc1cccc(-c2nn[nH]n2)c1)[C@H](Sc1ccccc1)c1ccccc1", "Ki": 12}
{"test": "Inhibition of beta lactamase CTX-M assessed as hydrolysis of beta lactam up to 5 mM by spectrometry analysis"}
{"compound": "CS(=O)(=O)c1cccc(C(=O)O)c1", "inhibition": "inactive"}
{"compound": "O=C(O)c1ccc(Cl)c(N2C(=O)c3ccccc3C2=O)c1", "inhibition": "inactive"}
{"compound": "O=C(O)c1cc(=O)cc2n1CCNC2=O", "inhibition": "inactive"}
{"compound": "Cc1[nH]c(C(=O)O)c(C)c1[C@H](C)O", "inhibition": "inactive"}
{"compound": "CC(=O)Nc1sccc1C(=O)O", "inhibition": "inactive"}
{"compound": "O=C(O)[C@H]1CC(=O)N(C2CCCC2)C1", "inhibition": "inactive"}
{"compound": "C[C@@H](Oc1cc(O)c2c(=O)cc(-c3ccccc3)oc2c1)C(=O)O", "inhibition": "inactive"}
{"compound": "O=C(O)c1cnc(O)cc1O", "inhibition": "inactive"}
{"compound": "O=C1C[C@H](C(=O)O)c2ccccc21", "inhibition": "inactive"}
{"compound": "O=C(O)c1ccccc1C(=O)c1ccc2c(c1)CCC2", "inhibition": "inactive"}
{"compound": "CC(=O)C1=C(O)C(O)N([C@@H](C)C(=O)O)[C@H]1c1ccccc1", "note": "(some centres not stated)", "inhibition": "inactive"}
{"compound": "O=C(O)c1cccc(COc2ccc(CO)cc2)c1", "inhibition": "inactive"}
{"compound": "O=C(O)c1ccc(=O)[nH]n1", "inhibition": "inactive"}
{"compound": "Cc1cc(O)nc(O)c1C(=O)O", "inhibition": "inactive"}
{"compound": "O=C1C=CC(=O)[C@@H]2CC=C[C@@H](C(=O)O)[C@H]12", "inhibition": "inactive"}
{"compound": "Cc1oncc1C(=O)O", "inhibition": "inactive"}
{"compound": "Cc1onc(C(N)=O)c1C(=O)Nc1nccs1", "inhibition": "inactive"}
{"compound": "O=C(O)c1cccc(S(=O)(=O)Nc2ccccc2O)c1", "inhibition": "inactive"}
{"compound": "O=C(O)CNC(=O)c1cccc2ccccc12", "inhibition": "inactive"}
{"compound": "O=C(O)C1CC(O)CN1", "note": "(configuration not stated)", "inhibition": "inactive"}
{"compound": "O=C(O)c1c[nH]c(=O)[nH]c1=O", "inhibition": "inactive"}
{"compound": "CC(=O)NCC(=O)O", "inhibition": "inactive"}
{"compound": "Cc1cc(C)cc(NC(=O)N(CCC(=O)O)Cc2ccccc2)c1", "inhibition": "inactive"}
{"compound": "O=C(O)C[C@H](NO)c1ccccc1", "inhibition": "inactive"}
{"compound": "Cc1ccc(N[C@H](CC(=O)c2ccccc2)C(=O)O)cc1C", "inhibition": "inactive"}
{"compound": "O=C(O)[C@H]1[C@H](C(=O)NCCO)[C@H]2C=C[C@H]1C2", "inhibition": "inactive"}
{"compound": "O=C(O)c1cn(S(=O)(=O)c2ccccc2)c2ccccc12", "inhibition": "inactive"}
{"compound": "C[C@@H]1C[C@H](C)CN(S(=O)(=O)c2cccc(C(=O)O)c2)C1", "inhibition": "inactive"}
{"compound": "C=C1C(=O)OC=C1C(=O)O", "inhibition": "inactive"}
{"compound": "O=C(Nc1nncs1)c1ccccc1O", "inhibition": "inactive"}
{"compound": "O=C(O)c1cccc(N2C(=O)c3ccc(Br)cc3C2=O)c1", "inhibition": "inactive"}
{"compound": "C[C@H]1CCc2n[nH]c(C(=O)O)c2C1", "inhibition": "inactive"}
{"compound": "O=C(O)CSc1nc(O)cc(O)n1", "inhibition": "inactive"}
{"compound": "Cc1cc(C(=O)Nc2ccc(CC(=O)O)cc2)c(C)o1", "inhibition": "inactive"}
{"compound": "CC(C)(C)c1ccc([C@@H](CC(=O)O)NC(=O)c2ccccc2F)cc1", "inhibition": "inactive"}
{"compound": "O=C(O)c1cc(=O)c2cc(F)ccc2o1", "inhibition": "inactive"}
{"compound": "Cc1ccc(NC(=O)[C@H]2CCC(=O)N2)c(C)c1", "inhibition": "inactive"}
{"compound": "Cc1ccoc1C(=O)NCc1occc1C(=O)O", "inhibition": "inactive"}
{"compound": "O=C(O)Cc1ccc(C(=O)c2cccs2)s1", "inhibition": "inactive"}
{"compound": "O=C(O)c1ccnc([C@@H]2CCCCC2=O)c1", "inhibition": "inactive"}
{"compound": "O=C(O)[C@@H]1C[C@@H](C(=O)O)N1", "inhibition": "inactive"}
{"compound": "Cc1cc(C)cc(N2C[C@@H](C(=O)O)CC2=O)c1", "inhibition": "inactive"}
{"compound": "Cc1ccc(-n2nc(C(N)=O)c(=O)cc2C)cc1", "inhibition": "inactive"}
{"compound": "O=C(O)c1ccc(=O)oc1", "inhibition": "inactive"}
{"compound": "C[C@H](NC(=O)c1ccccc1Cl)C(=O)O", "inhibition": "inactive"}
{"compound": "O=C1NC(=O)[C@H](Nc2ccccc2C(=O)O)S1", "inhibition": "inactive"}
{"compound": "CCCOc1ccc([C@H](CC(=O)O)NC(=O)c2ccc(F)cc2)cc1", "inhibition": "inactive"}
{"compound": "O=C1C=CC(=O)C(c2cccc(C(=O)O)c2)=C1", "inhibition": "inactive"}
{"compound": "O=C(O)c1ccccc1N[C@H](C(=O)O)c1ccccc1", "inhibition": "inactive"}
{"compound": "C=C(CC)N/N=C1\\NC(=O)[C@H](CC(=O)O)S1", "inhibition": "inactive"}
{"compound": "O=C(O)C[C@@H](NC(=O)c1ccccc1F)c1ccc2c(c1)OCO2", "inhibition": "inactive"}
{"compound": "O=C(O)c1ccc(Cl)c(N2CCCC2=O)c1", "inhibition": "inactive"}
{"compound": "C[C@H]1Cc2ccccc2N1C(=O)CSc1nnnn1C1CCCC1", "inhibition": "inactive"}
{"compound": "O=C(O)C[C@@H]1NC(=O)[C@H](Cc2ccccc2)NC1=O", "inhibition": "inactive"}
{"compound": "Cc1ccccc1C(=O)N[C@@H](C)C(=O)O", "inhibition": "inactive"}
{"compound": "O=C(O)[C@H]1C[C@H](O)CN1Cc1ccccc1", "inhibition": "inactive"}
{"compound": "O=C(CC1=NO[C@H](c2ccccc2O)N1)N1CCCC1", "inhibition": "inactive"}
{"compound": "O=C(O)c1cccc(-c2nc3ccccc3[nH]2)c1", "inhibition": "inactive"}
{"compound": "O=C(O)Cc1cc(=O)[nH]c2ccccc12", "inhibition": "inactive"}
{"compound": "O=C(O)c1cccc(OCc2cn3ccccc3n2)c1", "inhibition": "inactive"}
{"compound": "O=C(O)[C@@H]1C[C@H]1C(=O)N1CCc2ccccc21", "inhibition": "inactive"}
{"compound": "O=C(O)CC(=O)Nc1ccccc1", "inhibition": "inactive"}
{"compound": "CC(=O)Nc1nc(C(=O)O)cs1", "inhibition": "inactive"}
{"compound": "O=C(O)C[C@H](C(=O)NCc1ccccc1)c1ccccc1", "inhibition": "inactive"}
{"compound": "COc1ccc(C(=O)O)cc1S(=O)(=O)N1CCCCCC1", "inhibition": "inactive"}
{"compound": "O=C(O)[C@@H]1CNC(Cc2ccc(Cl)cc2)=N1", "inhibition": "inactive"}
{"compound": "O=C(O)Cn1cnc2ccccc21", "inhibition": "inactive"}
{"compound": "O=C(O)Cc1ccccc1O", "inhibition": "inactive"}
{"compound": "CCOC(=O)c1c(C(=O)O)[nH]c(C(=O)OCc2ccccc2)c1C", "inhibition": "inactive"}
{"compound": "CCC(=O)Nc1ccccc1C(=O)C(=O)O", "inhibition": "inactive"}
{"compound": "O=C(Nc1nncs1)c1ccccc1F", "inhibition": "inactive"}
{"compound": "O=C(O)[C@@H](Cc1ccco1)P(=O)(O)CN1CCOCC1", "inhibition": "inactive"}
{"compound": "O=CNc1ccccc1C(=O)O", "inhibition": "inactive"}
{"compound": "O=C(O)C[C@@H]1C(=O)NC(=S)N1c1ccccc1", "inhibition": "inactive"}
{"compound": "Cc1ccc(C(=O)NCC(=O)O)s1", "inhibition": "inactive"}
{"compound": "O=C(O)c1n[nH]c2c1CCC2", "inhibition": "inactive"}
{"compound": "Cc1oc(S(=O)(=O)N2CCCCC2)cc1C(=O)O", "inhibition": "inactive"}
{"compound": "NS(=O)(=O)c1cccc(C(=O)O)c1", "inhibition": "inactive"}
{"compound": "N#Cc1ccsc1NC(=O)c1ccccn1", "inhibition": "inactive"}
{"compound": "Cc1ccc(NC(=O)CSc2nnc(CCC(=O)O)c(=O)[nH]2)cc1", "inhibition": "inactive"}
{"compound": "Cc1cc(C(=O)NCc2oc(C(C)(C)C)cc2C(=O)O)c(C)o1", "inhibition": "inactive"}
{"compound": "O=C(O)[C@@H]1C(=O)NC[C@H]1c1ccccc1", "inhibition": "inactive"}
{"compound": "Cc1ccc(NC(=O)/C=C/C(=O)O)cc1", "inhibition": "inactive"}
{"compound": "O=C(O)/C=C/c1ccc(O)cc1", "inhibition": "inactive"}
{"compound": "Cc1cc(C)c2nc(CC(=O)O)[nH]c2c1", "inhibition": "inactive"}
{"compound": "O=C(O)c1sc(C(=O)O)c(-c2ccco2)c1-c1ccco1", "inhibition": "inactive"}
{"compound": "O=C(O)/C=C/c1ccc(O)c(O)c1", "inhibition": "inactive"}
{"compound": "C[C@@H](NC(=O)CNC(=O)CN)C(=O)O", "inhibition": "inactive"}
{"compound": "CC(=O)Nc1ccc(OS(=O)(=O)c2cccc(C(=O)O)c2)cc1", "inhibition": "inactive"}
{"compound": "O=C(O)c1cccc(S(=O)(=O)Nc2ccccn2)c1", "inhibition": "inactive"}
{"compound": "O=C(O)CN1C(=O)c2ccc(F)cc2C1=O", "inhibition": "inactive"}
{"compound": "CC(=O)Nc1ccc(Sc2ccccc2C(=O)O)c(C(=O)O)c1", "inhibition": "inactive"}
{"compound": "CC(=O)c1c(O)c(C(=O)O)c(C)oc1=O", "inhibition": "inactive"}
{"compound": "O=C1C=C(O)[C@@H](C(=O)O)[C@H](c2ccccc2)C1", "inhibition": "inactive"}
{"test": "Inhibition of beta lactamase AmpC assessed as hydrolysis of beta lactam by spectrometry analysis", "units": {"Ki": "µM"}}
{"compound": "O=C(O)CN1C(=O)O[C@@H](c2ccccc2)C1=O", "Ki": 3500}
{"test": "Inhibition of beta lactamase CTX-M assessed as hydrolysis of beta lactam at 250 uM by spectrometry analysis"}
{"compound": "Cc1nc2cc(C(=O)Nc3cccc(-c4nn[nH]n4)c3)ccc2n1-c1ccccc1", "inhibition": "Active"}
{"compound": "Cn1cc(C(=O)Nc2cccc(-c3nn[nH]n3)c2)c2ccccc21", "inhibition": "Active"}
{"compound": "O=C(Nc1cccc(-c2nn[nH]n2)c1)c1csc2c1CCCC2", "inhibition": "Active"}
{"compound": "O=C(Nc1cccc(-c2nn[nH]n2)c1)[C@H](Sc1ccccc1)c1ccccc1", "inhibition": "Active"}
{"compound": "CC(=O)Nc1cc(NC(C)=O)cc(C(=O)Nc2cccc(-c3nn[nH]n3)c2)c1", "inhibition": "Active"}
